# Columns and labels:
# [1] = target: T1, (α4)2(β2)3 nAChR (Homo sapiens, UniProt P17787+P43681); experiment: Two-electrode voltage-clamp of ACh-induced currents in Xenopus oocytes; format: cell-based
# T1 construct: expressed in transfected cells; host or cells: Xenopus laevis oocytes injected with cRNA
# Experimental: (§1) To begin to characterize LY2087101 interaction with the heteropentameric α4β2 nAChRs, we examined the selectivity of LY2087101 for the two α4β2 nAChR isoforms; high-agonist sensitivity (α4)2(β2)3 and low-agonist sensitivity (α4)3(β2)2 nAChRs. Xenopus oocytes were injected with α4 and β2 subunits RNAs at ratios 8:1 and 1:8 to favor expression of (α4)3(β2)2 and (α4)2(β2)3 nAChRs, respectively.
# (§2) Ovarian lobules were surgically harvested from oocytes-positive female Xenopus laevis (NASCO, Fort Atkinson, WI) according to an animal use protocol approved by the Texas A&M Health Sciences Center Institutional Animals Care and Use Committee. The Texas A&M Health Sciences Center Research Facility is registered as an animal research facility with the United States Department of Agriculture and is fully accredited by the American Association for Accreditation of Laboratory Animal Care (AAALAC). For oocytes defolliculation, ovarian lobes were treated with 3 mg/ml collagenase type 2 (Worthington Biomedical, Lakewood, NJ) in Ca + 2-free buffer (85 mM NaCl, 2.5 mM KCl, 1 mM MgCl2, 5 mM HEPES, pH 7.6). Collagenase treatment was allowed to proceed for 3 hours at room temperature with gentle shaking then oocytes were washed several times with buffer to remove collagenase then with ND96-gentamicine buffer. Healthy Stage V and VI oocytes were visually selected and maintained at 18 °C in modified ND96-gentamicine buffer (96 mM NaCl, 2 mM KCl, 1.8 mM CaCl2, 1 mM MgCl2, 5 mM HEPES, 50 µg/ml gentamicin, pH 7.6). Oocytes were injected with 50–100 ng of the desired nAChR subunits cRNA mix at ratios of 8α:1β or 1α:8β to express nAChRs with subunit stoichiometries of 3α:2β (low agonist sensitivity) or 2α:3β (high agonist sensitivity), respectively.
# (§3) Oocytes were continuously perfused with recording buffer (100 mM NaCl, 2 mM KCl, 1 mM CaCl2, 0.8 mM MgCl2, 1 mM EGTA, 10 mM Hepes, pH 7.5) except during periods of drug applications.
# [2] = target: T2, (α4)3(β2)2 nAChR (Homo sapiens, UniProt P17787+P43681); experiment: as above; format: cell-based
# T2 construct: expressed in transfected cells; host or cells: Xenopus laevis oocytes injected with cRNA
# T2 sequence (P43681 29-627 limits assumed): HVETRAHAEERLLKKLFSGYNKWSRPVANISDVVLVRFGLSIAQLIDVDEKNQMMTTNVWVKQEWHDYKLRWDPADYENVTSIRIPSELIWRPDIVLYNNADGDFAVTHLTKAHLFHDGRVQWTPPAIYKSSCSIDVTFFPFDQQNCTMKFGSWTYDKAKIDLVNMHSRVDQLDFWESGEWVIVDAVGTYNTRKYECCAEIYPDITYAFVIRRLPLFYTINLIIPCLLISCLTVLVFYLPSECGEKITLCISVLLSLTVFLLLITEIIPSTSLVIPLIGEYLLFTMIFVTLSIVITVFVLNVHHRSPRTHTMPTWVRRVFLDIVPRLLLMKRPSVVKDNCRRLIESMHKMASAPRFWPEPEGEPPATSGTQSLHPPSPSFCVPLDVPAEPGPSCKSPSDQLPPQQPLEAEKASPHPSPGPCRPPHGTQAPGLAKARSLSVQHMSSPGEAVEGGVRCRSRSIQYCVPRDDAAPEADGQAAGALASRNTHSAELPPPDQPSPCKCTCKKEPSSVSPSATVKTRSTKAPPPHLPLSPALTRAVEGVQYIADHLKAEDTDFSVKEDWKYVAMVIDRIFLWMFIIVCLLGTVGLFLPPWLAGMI
# T2 sequence (P17787 26-502): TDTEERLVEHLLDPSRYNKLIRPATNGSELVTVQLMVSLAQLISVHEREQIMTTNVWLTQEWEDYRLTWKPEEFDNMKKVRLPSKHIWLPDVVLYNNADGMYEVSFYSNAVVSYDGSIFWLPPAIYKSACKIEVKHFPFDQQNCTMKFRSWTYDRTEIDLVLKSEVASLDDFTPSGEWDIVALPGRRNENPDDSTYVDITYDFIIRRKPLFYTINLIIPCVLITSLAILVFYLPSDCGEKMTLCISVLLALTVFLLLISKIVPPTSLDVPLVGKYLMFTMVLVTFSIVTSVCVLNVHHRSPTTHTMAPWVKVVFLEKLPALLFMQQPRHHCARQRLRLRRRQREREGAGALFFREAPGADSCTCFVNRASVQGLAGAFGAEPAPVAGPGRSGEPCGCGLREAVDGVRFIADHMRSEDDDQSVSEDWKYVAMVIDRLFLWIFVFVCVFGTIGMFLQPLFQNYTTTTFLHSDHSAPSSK
# Experimental: as §1, §2, §3
# [3] = ACh alone (control), normalized to 1 mM ACh
# [4] = in the presence of 1 µM LY2087101
# T1 sequence (P43681 29-627 limits assumed): as the sequence (P43681 29-627 limits assumed) above
# T1 sequence (P17787 26-502): as the sequence (P17787 26-502) above
smiles,measurement,setting,value
"CC(=O)OCC[N+](C)(C)C [ACh, Acetylcholine chloride]",ACh h (Hill coefficient),[1]; ACh alone (control),1.2 ± 0.03
same,ACh Imax,[1]; [3],100 ± 1%
same,ACh h (Hill coefficient),[1]; [4],1.0 ± 0.04
same,ACh h (Hill coefficient),[2]; ACh alone (control),0.66 ± 0.06
same,ACh Imax,[2]; [3],117 ± 6%
same,ACh h (Hill coefficient),[2]; [4],0.7 ± 0.1
